Patent US7553823B2, “C-pyrazole A2A receptor agonists” (CV Therapeutics, Inc., priority 1999, dated 2009)
Read-outs that look alike come from different tables or passages of the source.

Tests used:
A2A AdoR [1] = assay: Coronary blood flow and reversal time of coronary vasodilation in open-chest anesthetized pigs; settings: pig
Method: Farm pigs weighing 22-27 kg were used in this study. […] In addition, animals were used in accordance with the guidelines of the University of Kentucky Institutional Animal Care and Use Protocol.
Anesthesia was anesthetized with ketamine (20 mg/kg, i.m.) and sodium pentobarbital (15-18 mg/kg i.v.). Anesthesia was maintained with additional sodium pentobarbital (1.5-2 mg/kg, i.v.) every 15-20 minutes. Ventilation was maintained via a tracheotomy using a mixture of room air and 100% O2. Tidal volume, respiratory rate and fraction of O2 in inspired air were adjusted to maintain normal arterial blood gas (ABG) and pH values. […] Lactate Ringers solution was administered via an ear or femoral vein, at 5-7 ml/kg/min after a initial bolus of 300-400 ml. A catheter was inserted into the femoral artery to monitor arterial blood pressure and to obtain ABG samples.
The heart was exposed through a median sternotomy, and suspended in a pericardial cradle. Left ventricular pressure (LVP) was measured with a 5F high fidelity pressure sensitive tip transducer (Millar Instruments, Houston, Tex.) placed in the left ventricular cavity via the apex and secured with a purse string suture. A segment of the left anterior descending coronary artery (LAD), proximal to the origin of the first diagonal branch, was dissected free of, surrounding tissue. A transmit time perivascular flow probe (Transonic Systems Inc., Ithaca, N.Y.) was placed around this segment to measure coronary blood flow (CBF). Proximal to the flow probe a 24 g modified angiocatheter was inserted for intracoronary infusions. […] A2A AdoR agonists were dissolved in DMSO to produce stock concentrations of 1-5 mM, which were diluted in 0.9% saline and infused at rates of 1-1.5 ml/min. The A2A AdoR agonists were administered intracoronary. To maintain blood pressure constant, phenylephrine was administered intravenously. The phenylephrine stock solution (30 mM) was prepared in distilled water.
Prior to initiating the experiment, a 30-minute stabilization period followed the completion of all instrumentation. After obtaining the baseline hemodynamic data the first intracoronary infusion of an A2A ADOR agonist was initiated. Infusions were maintained for 4-5 minutes to allow LAD CBF to reach a steadystate, after which the infusion was terminated. The time to recovery of 50% (t 0.5) and 90% (t 0.9) of baseline CBF were recorded. Ten to 15 minutes after CBF returned to pre-drug values a second infusion with a different agonist was started. […] The effect of a maximum of three different agonists was determined in each experiment.

A1 AdoR = biological target: T1, A1 AdoR (Rattus norvegicus, UniProt P25099); assay: A-V nodal conduction time (negative dromotropic effect) in rat isolated perfused hearts; settings: Compound 18 0.1-30 μM, CVT510 100-400 nM
T1 construct: from tissue; host or cells: Sprague Dawley rat isolated perfused heart
T1 sequence (P25099 1-326): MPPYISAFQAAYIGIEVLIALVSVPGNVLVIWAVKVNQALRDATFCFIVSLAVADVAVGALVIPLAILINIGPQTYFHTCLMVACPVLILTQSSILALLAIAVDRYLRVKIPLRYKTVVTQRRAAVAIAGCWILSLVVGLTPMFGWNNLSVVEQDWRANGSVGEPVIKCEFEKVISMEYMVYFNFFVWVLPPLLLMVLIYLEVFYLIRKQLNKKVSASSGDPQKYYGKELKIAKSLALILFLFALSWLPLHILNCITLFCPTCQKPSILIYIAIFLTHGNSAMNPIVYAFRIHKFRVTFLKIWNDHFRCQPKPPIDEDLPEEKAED
Method: In experiments in which A1 adenosine receptor-mediated negative dromotropic effect was measured, atrial and ventricular surface electrograms were recorded during constant atrial pacing. The effect of various adenosine receptor agonists on atrioventricular conduction time was determined as described previously by Jenkins and Belardinelli Circ. Res. 63: 97-116 (1988).
Rats and guinea pigs, of either sex weighing from 230 to 260 grams and 300 to 350 grams, respectively, were used in this study. Animals were anesthetized by peritoneal injection of a cocktail containing ketamine and xylazine (ketamine 100 mg, xylazine 20 mg/ml). The chest was opened and the heart quickly removed. The heart was briefly rinse in ice-cold Krebs-Henseleit solution (see below), and the aorta cannulated. […]
A1 adenosine receptor-mediated depression of A-V nodal conduction time (negative dromotropic effect) was measured. Atrial and ventricular surface electrograms in rats and H is bundle electrogram in guinea pigs, were recorded during constant atrial pacing. The effects of Compound 18 on atrioventricular conduction time and stimulus-to-His-bundle (S-H interval) were determined as described previously by Jenkins and Belardinelli (1988).
The effects of Compound 18 on coronary conductance (A2A effect) and atrioventricular conduction time or stimulus-to-His-bundle (S-H) interval (A1 effect) was then determined. […]

A2A adenosine receptor = A2A adenosine receptor (Rattus norvegicus, UniProt P30543); assay: Reversal time of coronary vasodilation after bolus injection in rat isolated perfused hearts
A2A adenosine receptor, sequence (P30543 whole entry, the tested form may be a part): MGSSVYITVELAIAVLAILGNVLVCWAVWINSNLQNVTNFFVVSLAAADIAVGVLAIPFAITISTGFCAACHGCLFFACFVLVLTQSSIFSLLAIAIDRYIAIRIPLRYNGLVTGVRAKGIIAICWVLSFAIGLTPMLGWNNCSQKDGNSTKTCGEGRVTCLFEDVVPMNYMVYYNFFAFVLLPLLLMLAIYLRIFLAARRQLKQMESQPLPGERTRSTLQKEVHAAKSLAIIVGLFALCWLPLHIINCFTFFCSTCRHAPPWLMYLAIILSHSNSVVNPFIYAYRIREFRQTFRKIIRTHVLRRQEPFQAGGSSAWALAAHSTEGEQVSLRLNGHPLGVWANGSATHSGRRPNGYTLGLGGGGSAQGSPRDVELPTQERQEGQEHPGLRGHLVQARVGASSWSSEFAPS
Method: Animals were anesthetized by peritoneal injection of a cocktail containing ketamine and xylazine (ketamine 100 mg, xylazine 20 mg/ml). The chest was opened and the heart quickly removed. The heart was briefly rinse in ice-cold Krebs-Henseleit solution (see below), and the aorta cannulated. […] The heart was electrically paced at a fixed cycle length of 340 ms (250 beats/min) using a bipolar electrode place on the left atrium. The electrical stimuli were generated by a Grass stimulator (Model S48, W. Warwick, R.I) and delivered through a Stimuli Isolation Unit (Model SIU5, Astro-Med, Inc., NY) as square-wave pulses of 3 msec in duration and amplitude of at least twice the threshold intensity.
Coronary perfusion pressure (CPP) was measured using a pressure transducer, connected to the aortic cannula via a T-connector positioned approximately 3 cm above the heart. Coronary perfusion pressure was monitored throughout the experiment and recorded either on a chart recorder (Gould Recorder 2200S) or a computerized recording system (PowerLab/4S, ADInstruments Pty Ltd, Australia). Only hearts with CPP ranging from 60 to 85 mmHg (in the absence of drugs) were used in the study.
Protocol: Bolus injections. […] The times to 50% (t 0.5) and 90% (t 0.9) reversal of the decrease in CPP were measured. Each heart was exposed to a maximum of three vasodilators.

human A1 AdoR = biological target: T2, human A1 AdoR (Homo sapiens, UniProt P30542); assay: Competition binding, [3H]DPCPX binding sites on CHO-hA1AdoR cell membranes; settings: Gpp(NH)p 100 μM
T2 construct: expressed in transfected cells
T2 sequence (P30542 1-326): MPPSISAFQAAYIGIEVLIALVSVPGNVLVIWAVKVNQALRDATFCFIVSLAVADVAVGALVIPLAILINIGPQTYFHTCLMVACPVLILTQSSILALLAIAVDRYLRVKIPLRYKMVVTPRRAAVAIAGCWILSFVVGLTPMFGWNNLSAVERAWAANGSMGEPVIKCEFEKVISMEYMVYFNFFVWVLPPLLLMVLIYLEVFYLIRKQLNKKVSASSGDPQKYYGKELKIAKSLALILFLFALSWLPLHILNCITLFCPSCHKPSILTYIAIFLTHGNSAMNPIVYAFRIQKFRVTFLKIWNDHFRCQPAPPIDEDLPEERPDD

human A2A AdoR = human A2A AdoR (Homo sapiens, UniProt P29274); assay: Competition binding, [3H]ZM241385 binding sites on HEK-hA2AAR cell membranes; settings: for Ki: HEK-hA2AAR Cells
human A2A AdoR, sequence (P29274 whole entry): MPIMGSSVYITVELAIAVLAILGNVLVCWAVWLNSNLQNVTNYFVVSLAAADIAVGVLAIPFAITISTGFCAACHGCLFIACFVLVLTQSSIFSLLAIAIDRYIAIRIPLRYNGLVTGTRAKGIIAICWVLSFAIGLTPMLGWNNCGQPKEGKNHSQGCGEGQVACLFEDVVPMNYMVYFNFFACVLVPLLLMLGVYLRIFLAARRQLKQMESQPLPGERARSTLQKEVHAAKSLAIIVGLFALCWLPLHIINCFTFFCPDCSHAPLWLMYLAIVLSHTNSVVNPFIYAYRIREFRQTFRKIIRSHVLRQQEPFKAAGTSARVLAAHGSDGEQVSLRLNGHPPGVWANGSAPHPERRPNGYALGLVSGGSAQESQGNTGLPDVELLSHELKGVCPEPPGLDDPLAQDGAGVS
Method: To make membranes, cells were detached from the culture plates into ice-cold 50 mmol/L Tris-HCI buffer (pH7.4). The cell suspensions were homogenized with Polytron at setting 4 for 30 seconds, and spun at 48,000 g for 15 minutes. The pellets were washed three times by re-suspension in ice-cold Tris-HCI buffer and centrifugation. The final pellet was re-suspended in a small volume of Tris-HCI, aliquoted and frozen at −80° C. until used for receptor binding assays. The protein concentration of membrane suspensions was determined using the Bradford method (Bio-Rad) with bovine serum as standards.
At the end of incubation, bound and free radioligands were separated by filtration through Whatman GF/C glass fiber filters using a Brandel tissue harvester (Gaithersburg, Md.). Triplicate determinations were performed for each concentration of the competing agent.
The affinity (Ki) of various CVT compounds for the A1 and A2A adenosine receptor were determined by their potency to compete for [^3H]CPX (A1) or [^3H]ZM241385 (A2A) binding sites on membranes derived from CHO-hA1AdoR, PC12 or HEK-HA2AAdoR cells.

A2A receptor = A2A receptor (Sus scrofa, UniProt K9IW67); assay: Affinity for the A2A receptor in a pig striatum membrane prep (displacement of tritiated ZM 241385); format: binding
A2A receptor, sequence (K9IW67 1-409): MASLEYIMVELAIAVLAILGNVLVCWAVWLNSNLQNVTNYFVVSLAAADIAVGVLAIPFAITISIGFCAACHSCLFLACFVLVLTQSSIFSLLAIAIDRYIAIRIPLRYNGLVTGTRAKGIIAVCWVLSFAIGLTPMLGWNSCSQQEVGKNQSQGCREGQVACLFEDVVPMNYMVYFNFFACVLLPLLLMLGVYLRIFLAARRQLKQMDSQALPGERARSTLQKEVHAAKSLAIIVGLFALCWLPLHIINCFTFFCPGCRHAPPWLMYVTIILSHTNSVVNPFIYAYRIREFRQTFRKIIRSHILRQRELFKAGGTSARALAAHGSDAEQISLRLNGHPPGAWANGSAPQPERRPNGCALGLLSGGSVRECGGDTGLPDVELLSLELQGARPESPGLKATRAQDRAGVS
Method: Compounds of this invention were assayed to determine their affinity for the A2A receptor in a pig striatum membrane prep. Briefly, 0.2 mg of pig striatal membranes were treated with adenosine deaminase and 50 mM Tris buffer (pH=7.4) followed by mixing. […] After incubation at 23 C for 2 h, then the solutions were filtered using a membrane harvester using multiple washing of the membranes (3×). The filter disks were counted in scintillation cocktail affording the amount of displacement of tritiated ZM by the competitive binding compounds of this invention. Greater than a 5 point curve was used to generate IC50's and the number of experiments is indicated in the column marked in Table 1 below.

A2A AdoR [2] = biological target: A2A AdoR (Rattus norvegicus, UniProt P30543); assay: Increase of coronary conductance in rat isolated perfused hearts
A2A AdoR (Rattus norvegicus, UniProt P30543), sequence (P30543 whole entry, the tested form may be a part): as the sequence (P30543 whole entry, the tested form may be a part) above
Method: (§1) Adult Sprague Dawley rats and Hartley guinea pigs of either sex weighing from 230 to 260 grams and 300 to 350 grams, respectively were used in this study. Animals were anesthetized by peritoneal injection of a cocktail containing ketamine and xylazine (ketamine 100 mg, xylazin 20 mg/ml). The chest was opened and the heart quickly removed. The heart was briefly rinse in ice-cold Krebs-Henseleit solution (see below), and the aorta cannulated. […] The heart was electrically paced at a fixed cycle length of 340 ms (250 beats/min) using a bipolar electrode place on the left atrium. The electrical stimuli were generated by a Grass stimulator (Model S48, W. Warwick, R.I.) and delivered through a Stimuli Isolation Unit (Model SIU5, Astro-Med, Inc., NY) as square-wave pulses of 3-msec in duration and amplitude of at least twice the threshold intensity.
Coronary perfusion pressure (CPP) was measured using a pressure transducer, connected to the aortic cannula via a T-connector positioned approximately 3 cm above the heart. Coronary perfusion pressure was monitored throughout the experiment and recorded either on a chart recorder (Gould Recorder 2200S) or a computerized recording system (PowerLab/4S, ADinstruments Pty Ltd, Australia). Only hearts with CPP ranging from 60 to 85 mmHg (in the absence of drugs) were used in the study.
One concentration was made from the stock solution by dilution into saline to yield solution of either 2×10^−4 or 2×10^−5 M. These solutions were injected into the perfusion line of the apparatus as boluses of 20 μl. In some experiments the solutions were placed into a 30 ml glass syringe and the drugs were infused at rates necessary to achieve the desired perfusate concentrations (e.g, 10, 100 nM, etc).
Hearts were instrumented for continuous recording of coronary perfusion pressure (A2A response) and atrioventricular (A-V) conduction time or S-H interval (A1 response).

A2A AdoR [3] = biological target: A2A AdoR (Cavia porcellus, UniProt P46616); assay: Increase of coronary conductance in guinea pig isolated perfused hearts
A2A AdoR (Cavia porcellus, UniProt P46616), sequence (P46616 whole entry, the tested form may be a part): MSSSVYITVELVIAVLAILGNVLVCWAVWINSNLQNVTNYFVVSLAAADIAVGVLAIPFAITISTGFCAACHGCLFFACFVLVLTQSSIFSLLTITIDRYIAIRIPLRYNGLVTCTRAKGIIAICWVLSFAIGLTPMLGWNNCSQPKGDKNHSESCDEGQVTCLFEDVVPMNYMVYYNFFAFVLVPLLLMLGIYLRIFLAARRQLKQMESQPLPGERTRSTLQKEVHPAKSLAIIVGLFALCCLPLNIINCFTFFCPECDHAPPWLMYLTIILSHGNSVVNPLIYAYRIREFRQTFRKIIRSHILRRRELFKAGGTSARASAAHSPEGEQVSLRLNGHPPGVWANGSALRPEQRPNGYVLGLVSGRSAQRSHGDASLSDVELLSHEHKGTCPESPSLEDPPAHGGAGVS
Method: as §1
Coronary perfusion pressure (CPP) was measured using a pressure transducer, connected to the aortic cannula via a T-connector positioned approximately 3 cm above the heart. Coronary perfusion pressure was monitored throughout the experiment and recorded either on a chart recorder (Gould Recorder 2200S) or a computerized recording system (PowerLab/4S, ADinstruments Pty Ltd, Australia). Only hearts with CPP ranging from 60 to 85 mmHg (in the absence of drugs) were used in the study. […]

[4] = intracoronary infusion 2 μg/kg/min
[5] = intracoronary infusion 30 μg/kg/min
[6] = pig striatal membranes, tritiated ZM 241385 2 nM, 23 C 2 h, read-out: A2a Ki
[7] = rat isolated perfused hearts, bolus into perfusion line
[8] = intracoronary infusion 1 μg/kg/min

`CCNC(=O)[C@H]1O[C@@H](n2cnc3c(N)nc(NCCc4ccc(CCC(=O)O)cc4)nc32)[C@H](O)[C@@H]1O` [CGS21680, reference compound] was tested, and the “t0.5, time to 50% reversal of the increase in coronary blood flow” value (A2A AdoR [1]; [4]) was 9.7 ± 0.8 min and the “t0.9, time to 90% reversal of the increase in coronary blood flow” value (A2A AdoR [1]; [4]) was 21.4 ± 0.8 min.

In the case of `OC[C@H]1OC(n2cnc3c(N[C@@H]4CCOC4)ncnc32)[C@H](O)[C@@H]1O` (stereo partly drawn) [CVT510, 2-{6-[((3R)oxolan-3-yl)amino]purin-9-yl}(4S,3R,5R)-5-(hydroxymethyl)oxolane-3,4-diol, reference compound], the “effect on A-V nodal conduction time” value (A1 AdoR) is reported as “significantly prolonged”.

In the case of `Nc1nc(-c2cnn(Cc3ccccc3)c2)nc2c1ncn2[C@@H]1O[C@H](CO)[C@@H](O)[C@H]1O` [Compound 12, (4S,2R,3R,5R)-2-{6-amino-2-[1-benzylpyrazol-4-yl]purin-9-yl}-5-(hydroxymethyl)oxolane-3,4-diol], the “t 0.5, time to 50% reversal of the increase in coronary conductance” value (A2A adenosine receptor) is reported as 4.1 ± 0.3 min, the “t 0.9, time to 90% reversal of the increase in coronary conductance” value (A2A adenosine receptor) is reported as 9.8 ± 1.4 min and the Ki (human A1 AdoR; read-out: Binding Affinity Ki, CHO-hA1AR) is reported as 6.35 µM. It also gave a Ki (human A1 AdoR; read-out: Binding Affinity pKi ± SEM, CHO-hA1AR (converted)) of 6.03 µM, a Ki (human A2A AdoR; Binding Affinity Ki) of 13.7 µM and a Ki (human A2A AdoR; Binding Affinity pKi ± SEM) of 13.5 µM. The Ki (A2A receptor) was 6.67 ± 1.12 µM, the “CBF ("Fold Increase") above baseline, maximal” value (A2A AdoR [1]; [5]) was 3.78 ± 0.70 fold and the “t0.5, time to 50% reversal of the increase in coronary blood flow” value (A2A AdoR [1]; [5]) was 2.3 ± 0.6 min. The “t0.9, time to 90% reversal of the increase in coronary blood flow” value (A2A AdoR [1]; [5]) was 9.6 ± 1.0 min, the “effect on coronary conductance” value (A2A AdoR [2]) was “concentration-dependent increase” and the “relative potency in increasing coronary conductance” value (A2A AdoR [2]) was “about as potent as adenosine”.

`CC(C)n1cc(-c2nc(N)c3ncn([C@@H]4O[C@H](CO[Si](C)(C)C(C)(C)C)[C@@H](O[Si](C)(C)C(C)(C)C)[C@H]4O[Si](C)(C)C(C)(C)C)c3n2)cn1` [Compound 16, 9-{(2R,3R,4R,5R)-3,4-bis(1,1,2,2-tetramethyl-1silapropoxy)-5-[(1,1,2,2-tetramethyl-1-silapropoxy)methyl]oxolan-2-yl}-2-[1-(1-methylethyl)pyrazol 4-yl]purine-6-ylamine] was tested, and the “A2A affinity” value (human A2A AdoR; conclusion of Example 5) was “low affinity A2A agonist”.

In the case of `Cn1cc(-c2nc(N)c3ncn([C@@H]4O[C@H](CO)[C@@H](O)[C@H]4O)c3n2)cn1` [Compound 19, (4S,2R,3R,5R)-2-[6-amino-2-(1-methylpyrazol-4-yl)purin-9-yl]-5-(hydroxymethyl)oxolane-3,4-diol], the Ki (A2A receptor; [6]) is reported as > 10 µM.

`CC(C)n1cc(-c2nc(N)c3ncn([C@@H]4O[C@H](CO)[C@@H](O)[C@H]4O)c3n2)cn1` [Compound 20, (4S,2R,3R,5R)-2-{6-amino-2-[1-(methylethyl)pyrazol-4-yl]purin-9-yl}-5-(hydroxymethyl)oxolane-3,4-diol] gave a Ki (A2A receptor; [6]) of ~10 µM.

With `Nc1nc(-c2cnn(CCCc3ccccc3)c2)nc2c1ncn2C1O[C@H](CO)[C@@H](O)[C@H]1O` (stereo partly drawn) [Compound 21, (4S,2R,3R,5R)-2-{6-amino-2-[1-(3-phenylpropyl)pyrazolyl-4-yl]purin-9-yl}-5-(hydroxymethyl)oxolane-3,4-diol] the “t 0.5, time to 50% reversal of the increase in coronary conductance” value (A2A adenosine receptor; [7]) was 8.3 ± 0.4 min, the “t 0.9, time to 90% reversal of the increase in coronary conductance” value (A2A adenosine receptor; [7]) was 12.6 ± 0.4 min and the Ki (A2A receptor; [6]) was 6.13 ± 0.582 µM.

Compound `CC(C)(C)c1ccc(Cn2cc(-c3nc(N)c4ncn([C@@H]5O[C@H](CO)[C@@H](O)[C@H]5O)c4n3)cn2)cc1` [Compound 22, (4S,2R,3R,5R)-2-{6-amino-2-[1-(4-t-butylbenzyl)pyrazol-4-yl]purin-9-yl}-5-(hydroxymethyl)oxolane-3,4-diol] has a Ki (A2A receptor; [6]) of 7.68 µM.

With `Nc1nc(-c2cn[nH]c2)nc2c1ncn2[C@@H]1O[C@H](CO)[C@@H](O)[C@H]1O` [Compound 23, (4S,2R,3R,5R)-2-(6-amino-2-pyrazol-4-ylpurin-9-yl)-5-(hydroxymethyl)oxolane-3,4-diol] the Ki (A2A receptor; [6]) was > 100 µM.

`CCCCC#Cc1nc(N)c2ncn([C@@H]3O[C@H](C(=O)NCC)[C@@H](O)[C@H]3O)c2n1` [HENECA, reference compound] was tested, and the “t 0.5, time to 50% reversal of the increase in coronary conductance” value (A2A adenosine receptor; [7]) was 28.6 ± 1.1 min and the “t 0.9, time to 90% reversal of the increase in coronary conductance” value (A2A adenosine receptor; [7]) was 32.8 ± 3.1 min.

In the case of `Nc1nc(N/N=C/C2CCCCC2)nc2c1ncn2[C@@H]1O[C@H](CO)[C@@H](O)[C@H]1O` [WRC-0470, reference compound], the “t 0.5, time to 50% reversal of the increase in coronary conductance” value (A2A adenosine receptor) is reported as 21.9 ± 0.9 min, the “t 0.9, time to 90% reversal of the increase in coronary conductance” value (A2A adenosine receptor) is reported as 27.9 ± 1.4 min and the EC50 (A2A AdoR [3]) is reported as 0.0024 ± 0.0011 µM. For the same compound, the “t0.5, time to 50% reversal of the increase in coronary blood flow” value (A2A AdoR [1]; [8]) was 9.5 ± 0.8 min, the “t0.9, time to 90% reversal of the increase in coronary blood flow” value (A2A AdoR [1]; [8]) was 22.5 ± 1.6 min and the EC50 (A2A AdoR [2]) was 0.0006 ± 0.0002 µM. The “effect on coronary conductance” value (A2A AdoR [2]) was “concentration-dependent increase”.

For `CCCCCCC#Cc1nc(N)c2ncn([C@@H]3O[C@H](CO)[C@@H](O)[C@H]3O)c2n1` [YT-146, reference compound], the “t 0.5, time to 50% reversal of the increase in coronary conductance” value (A2A adenosine receptor; [7]) was 17.7 ± 1.0 min, the “t 0.9, time to 90% reversal of the increase in coronary conductance” value (A2A adenosine receptor; [7]) was 28.5 ± 4.0 min and the “CBF ("Fold Increase") above baseline, maximal” value (A2A AdoR [1]; [8]) was 3.44 ± 0.47 fold. For the same compound, the “t0.9, time to 90% reversal of the increase in coronary blood flow” value (A2A AdoR [1]; [8]) was 32.9 ± 5.6 min.
